We go through two compounds from patent US8999890B2, “Signaling compositions, methods, and systems for effecting plant burndown and herbicide enhancement” (KamTec, priority 2013, dated 2015).

What all share (type): in vivo
Assay [1] deals with ‘M-202’ medium-grain rice (Oryza sativa L.). Description: Rice seed soaking treatment with NaCl irrigation (Example I). On the procedure: In another preferred embodiment of the present invention, seeds are soaked in prepared bio-regulator solutions for a period of three hours. Rice seeds were selected from ‘M-202’ medium-grain rice (Oryza sativa L.), (Reg. no 72) PI494105 type grains; this selection was meant to represent a typical California rice seed, and was not meant to be limiting. The bio-regulator solutions are prepared using 5 ppm BMTA solution with 0.05% v/v Kinetic® made by Helena Chemical Company. The solution was drained and the seeds planted in starter plastic containers with potting soil. After germination and having grown to 4 inches in height, the plants were transplanted into 6 inch diameter plastic containers. Two sets of three pots each were set up for this study; one set for the test group and one set for the control group. Both the control and test studies were irrigated with 1500 ppm NaCl solution from time of planting until the study was completed. The purpose of the NaCl irrigation was to determine the effect of the bio-regulator treatment in regards to salt tolerances.

Assay [2] concerns sunflower, Melody variety. Description: Sunflower seed soaking, field plots (Example XI). The note with it: for % Moist: control 12.53; for Wt at 6% Moist: control 60.74; for Wt. at 6 % Moist: normalized to 6% seed moisture content. The text has this:
In this preferred embodiment of the present invention, sunflower seeds were selected from the Melody variety and were soaked for three hours in solutions containing 0.05% Tween 20 and BMTA or BMPA, at a concentration of 3 ppm. Another group of seeds of the same variety was soaked in a solution with only in 0.05% Tween 20 added (control). Following soaking, seeds were desiccated to storage moisture contents and BMTA, BMPA and control seeds were sown in three twenty-five foot plots (Reps) each on May 21 (plots were arranged in a randomized block design). On September 16, sunflower heads were harvested, with a harvest of around 20 heads per plot/Rep on average. The heads were hand-threshed to collect seeds. Moisture, count, and weight data was collected on seeds from each head.

A further assay has as its system geranium slips. Kind of assay: Treatment of geranium slips (Example III). On the procedure: In this preferred embodiment of the present invention, according to common geranium cutting means, geraniums were slipped into 18 slips of similar length. In this example the slips had no flower buds. The slips were separated into four different sets: three slips each in three of the sets, and then nine slips in the final set. The slips are then treated with bio-regulator solutions formed from compositions from the different groups and water. In the first set, the slips were treated with BMVE solution; in the second set, the slips were treated with BMTA solution; in the third set, the slips were treated with BMIA in bromide solution; and, in the fourth set, the nine slips were treated with water.
The treatment with bio-regulator solution preferably occurs in the initial planting of the geranium slips, but can also occur at any time from the forming of the geranium slips up to and including the transplanting of the slips. The treatment can occur after transplanting, but this is not the preferred method. […]
The study associated with this embodiment is summarized in Table 3-A below, where Set 1 is the control group and Set 2 is the test group. […] The ratios for Table 3-C are calculated by totaling the heights grown by each slip in each set and comparing it to the control counterpart that was grown in similar environmental conditions, without the treatment of the bio-regulator solutions. […]

For the next assay, the system named is ‘M-202’ type rice. Kind of assay: Rice seed soaking treatment, 24 hours (Example II). The note with it: for Biomass / Height / Tillering: 24 hrs soak, tap water irrigation, vs Set 1 (water). As for the experimental part:
In this preferred embodiment of the present invention, seeds are soaked in prepared bio-regulator solutions for a period of 24 hours. Rice seeds were selected from the same ‘M-202’ type grains as in the previous study. The bio-regulator solutions were prepared using 5 ppm BMPA solution. The solution was drained and seeds planted in starter plastic containers filled with potting soil. After germination and plant growth reaching height of four inches, rice seedlings were transplanted from their greenhouse containers to six-inch diameter plastic containers and placed outdoor. Again, two sets of three pots for the control and test group were used.
These studies were also carried out using an increased amount of BMPA. The amount was increased from 1 ppm to 5 ppm, and the results of the study were similar to the results outlined in the paragraph above.

Assay [3] has as its system aphid infestation on cotton Bt plant. Kind of assay: Cotton Bt seed soaking, aphid infestation (Example VII). As for the experimental part:
In this preferred embodiment of the present invention, seeds were soaked for a period of 3 hours in the bio-regulator solution. Cotton Bt were selected and studied to determine if bio-regulator chemistry will enhance or influence the inserted Bt genes of the transgenic plant. The seeds were separated into two different sets on July 2. The first set, Set 1, was soaked in 5 ppm BMPA solution with 0.05% Kinetic®. The second set, Set 2, was soaked in water with 0.05% v/v Kinetic®. The solution was drained and the treated seeds planted in starter plastic trays. After germination and after the seedlings reached the height of four inches, the cotton Bt plants were transplanted into larger six-inch plastic containers. The cotton plants were placed outdoors for the duration of the study. The different sets of plants were regularly observed throughout this study.

Setting [4] is: BMTA soln. 5 ppm, 3 hours seed soak, NaCl soln. irrigation, vs Set 1 (tap water).
Where [5] appears, read: mean over the three Reps, control 65.47.
The mark [6] stands for this setting: mean over the three Reps, control 1062.
Setting [7] is: mean over the three Reps, control 2676.
Setting [8] is: per Rep (plot), 3 ppm, three hours soak.
Where [9] appears, read: per Rep, estimate based on planting rate of 20,000 seeds/acre.

SMILES strings stand for the structures. “And” between values parts separate entries of the source, which are not always exact repeats. Equal values may be shown once. Some results are limits rather than exact numbers.

For `Cc1ccc(C(=O)OCCN(C)Cc2ccccc2)cc1` [BMTA], the “Observed growth from planting through completion of the study” value in assay [1] (5 ppm BMTA, 1500 ppm NaCl irrigation) is given as “enhanced growth”. For the same compound, in assay [1] (setting [4]), the Biomass is given as approximately 3 x Set 1, the Height entry is on record as “Same” and the Tillering is approximately 3 x Set 1. For the same compound, in assay [2] (mean over the three Reps), the “% Moist” value is listed as 13.64% and the “Wt at 6% Moist” value amounted to 65.08. Besides, the “Fresh Seed Wt.” value in assay [2] (setting [5]) came out at 70.85 g. The “Seed Count” value in assay [2] (setting [6]) stood at 1108. Moreover, in assay [2] (setting [7]), the “Yield @ 20,000 Plants/Acre” value is reported as 2867 lbs. Further, in assay [2] (setting [8]), the “% Moist (seed moisture content)” value was 13.10% and 13.01% and 14.82%; the “Fresh Seed Wt.” value was 77.35 gm and 73.58 gm and 61.64 gm; the “Seed Count” value was 1226 and 1157 and 942. Besides, in assay [2] (setting [9]), the “Yield @ 20,000 Plants/Acre” value is 3147 lbs and 2989 lbs and 2464 lbs. Also, in assay [2] (per Rep), the “Wt. at 6 % Moist” value was 71.43 and 67.86 and 55.94. Besides, the “% of Control” value in the assay with geranium slips (Day 11, total height vs water control slips) is 186.49%. Further, the “% of Control” value in the assay on geranium slips (Day 27, total height vs water control slips) is 162.26%.

Consider `CN(CCOC(=O)COc1ccccc1)Cc1ccccc1` [BMPA], for which, in assay [2] (mean over the three Reps), the “% Moist” value is on record as 13.27%. For the same compound, the “Wt at 6% Moist” value in assay [2] (mean over the three Reps) was determined as 64.29. Also, the “Fresh Seed Wt.” value was 69.75 g in assay [2] (setting [5]); 78.24 gm and 65.01 gm and 65.99 gm in assay [2] (setting [8]). Also, the “Seed Count” value in assay [2] (setting [6]) was 1071; in assay [2] (setting [8]), 1185 and 977 and 1052. Moreover, the “Yield @ 20,000 Plants/Acre” value in assay [2] (setting [7]) was 2832 lbs; in assay [2] (setting [9]), 3171 lbs and 2617 lbs and 2708 lbs. In assay [2] (setting [8]), the “% Moist (seed moisture content)” value was 13.52% and 13.93% and 12.37%. In addition, the “Wt. at 6 % Moist” value in assay [2] (per Rep) is 71.99 and 59.42 and 61.46. In addition, the “Observed growth from planting through completion of the study” value with ‘M-202’ type rice (5 ppm BMPA, 24 hours soak) is “enhanced growth”. Also, the Biomass with ‘M-202’ type rice (BMPA 1 ppm) and with ‘M-202’ type rice (BMPA 5 ppm) was approximately 4 x Set 1 throughout. For the same compound, the Height in the assay on ‘M-202’ type rice (BMPA 1 ppm) and with ‘M-202’ type rice (BMPA 5 ppm) was approximately 1.2 x Set 1 throughout. The Tillering in the assay on ‘M-202’ type rice (BMPA 1 ppm) and in the assay with ‘M-202’ type rice (BMPA 5 ppm) was approximately 4 x Set 1 in each case. The “Delay of the infestation of aphids on the cotton Bt plant” value in assay [3] (5 ppm BMPA seed soak vs untreated) was not above 19 days. In addition, the “Aphid infestation, Treated” value is “No Aphid” in assay [3] (47 days after planting, 5 ppm BMPA, 3 hrs seed soak, control L-Aphid); “No Aphid” in assay [3] (55 days after planting, control H-Aphid); “L-Aphid” in assay [3] (57 days after planting, control H-Aphid); “M-Aphid” in assay [3] (74 days after planting, control Stressed).
